According to article PMC8097466, “In Vivo Targeting of Escherichia coli with Vancomycin-Arginine” (Antimicrobial Agents and Chemotherapy, 2021):
Values after ≈ are worked out from the molar mass of the structure shown. Like-named read-outs stand apart in the source and are kept apart here.

How the values were obtained:
[1] = system: E. coli UTI89; test: 24-h thigh muscle infection model in neutropenic CD-1 mice; assay type: in vivo, Escherichia coli; details: for Log10 (group geometric mean ± SD CFU/g): n = 5 to 8
Protocol: (§1) Using a screening-based strategy, preliminary proof-of-concept studies with V-r employed an abbreviated 9-h thigh muscle infection model in male CD-1 mice rendered neutropenic ([21]). To that end, an E. coli ATCC 25922 isolate was inoculated at 9.7 × 10^4 CFU into both thigh muscles per mouse (n = 5 per experimental group). V-r was administered s.c. every 2 h (110 to 880 mg/kg total dose) starting 1 h postinfection. At 9 h, thigh homogenates were prepared, and CFU were enumerated after culture on CLED (cystine-, lactose-, and electrolyte-deficient) agar. […] In a 24-h thigh muscle infection model, E. coli UTI89 was inoculated at 7.8 × 10^4 CFU into one thigh muscle per mouse (n = 5 to 8 per group) and treated with V-r (total dose, 200 to […]) using an every-6-h dosing regimen from 1 h postinfection. […] Overall, V-r caused an ∼4 to 7.5 log10 reduction in bacterial burden, compared with vehicle control, over the entire dose range.

[2] = system: human renal proximal tubular epithelial cells; test: hRPTEC biomarkers cytotoxicity; details: primary hRPTEC; cell count, nuclear size, DNA structure, mitochondrial mass, mitochondrial membrane potential, phospholipidosis, glutathione content; fetal bovine serum-deficient media
From the text: (§2) Identity was confirmed by ^1H nuclear magnetic resonance and time of flight mass spectrometry, and HCl content was quantified by ion-exchange chromatography.

[3] = system: S. agalactiae; test: MIC determination in alignment with CLSI guidelines; assay type: cell-based; details: Streptococcus agalactiae
[4] = system: E. coli; test: microbe, parasite or virus in culture; details: Escherichia coli
[5] = system: human erythrocytes; test: Red blood cell lysis; details: fetal bovine serum-deficient media
From the text: as §2

[6] = system: S. pneumoniae; test: MIC determination in alignment with CLSI guidelines; assay type: cell-based; details: Streptococcus pneumoniae
[7] = Thermodynamic solubility in saline
[8] = system: HepG2; test: HepG2 cell cytotoxicity; details: fetal bovine serum-deficient media
From the text: as §2

[9] = system: A. baumannii; test: microbe, parasite or virus in culture; details: Acinetobacter baumannii
[10] = Plasma protein binding, mouse; assay type: in vitro ADME
[11] = Plasma protein binding, human
[12] = system: E. coli ATCC 25922; test: 9-h thigh muscle infection model in neutropenic CD-1 mice; assay type: in vivo, Escherichia coli
Protocol: as §1

[13] = system: A. baumannii
[14] = Plasma pharmacokinetics after s.c. administration; design: species or system CD-1 mice; details: mouse, in vivo, sc
Protocol: Plasma pharmacokinetics (PK) of V-r after subcutaneous (s.c.) administration (20 and 121 mg/kg) was determined in naive male CD-1 mice (n = 3/group) using liquid chromatography-tandem mass spectrometry for analysis with a lower limit of quantitation of 5 ng/ml (Table 3).

[15] = total dose over 24 h 1,272 mg/kg

Which Reduction from stasis ([1]; 24-h model, ciprofloxacin group of Table 5 (20 mg/kg total)) does the source give for O=C(O)c1cn(C2CC2)c2cc(N3CCNCC3)c(F)cc2c1=O [Ciprofloxacin] here?
Its Reduction from stasis is 1.4 log10.

What about the “Log10 change from vehicle (CFU/g)” value ([1]; total dose over 24 h 20 mg/kg) of the same compound?
The value was −6.39 log10 CFU/g.

And the “Log10 (group geometric mean ± SD CFU/g)” value ([1]; total dose over 24 h 20 mg/kg)?
The value was 3.32 ± 0.14 log10 CFU/g.

For CN[C@H](CC(C)C)C(=O)N[C@H]1C(=O)N[C@@H](CC(N)=O)C(=O)N[C@H]2C(=O)N[C@H]3C(=O)N[C@H](C(=O)N[C@H](C(=O)O)c4cc(O)cc(O)c4-c4cc3ccc4O)[C@H](O)c3ccc(c(Cl)c3)Oc3cc2cc(c3O[C@@H]2O[C@H](CO)[C@@H](O)[C@H](O)[C@H]2O[C@H]2C[C@](C)(N)[C@H](O)[C@H](C)O2)Oc2ccc(cc2Cl)[C@H]1O [Vancomycin], which “hRPTEC biomarkers (CC50)” value [2] is on record?
Its value is greater than 100 µM.

What about the MIC ([3]; strain B057, clinical isolate (northwest UK)) of the same compound?
The MIC was 0.5 µg/mL (≈ 0.345 µM).

What about the MIC ([3]; strain B063, clinical isolate (northwest UK)) of the same compound?
Its MIC is 1 µg/mL (≈ 0.69 µM).

And the MIC ([4]; ATCC25922, strain ATCC 25922, CLSI susceptible reference strain)?
The MIC was 128 µg/mL (≈ 88.3 µM).

And the MIC ([4]; ATCCBAA2340, strain ATCC BAA-2340, blaKPC, Ambler A)?
The MIC was 128 µg/mL (≈ 88.3 µM).

And the MIC ([4]; ATCCBAA2469, strain ATCC BAA-2469, blaNDM-1, Ambler B)?
Its MIC is 128 µg/mL (≈ 88.3 µM).

And the MIC ([4]; BW25113, strain BW25113, parent strain of BW25113ΔacrB::kan mutant)?
Its MIC is 128 µg/mL (≈ 88.3 µM).

And the MIC ([4]; NCTC13441, strain NCTC 13441, uropathogenic ST131, blaCTX-M-15, blaOXA-1, blaTEM-1, Ambler A, D)?
Its MIC is 128 µg/mL (≈ 88.3 µM).

And the MIC ([4]; NCTC13462, strain NCTC 13462, blaCTX-M-2, Ambler A)?
Its MIC is 128 µg/mL (≈ 88.3 µM).

And the MIC ([4]; NCTC13846, strain NCTC 13846, clinical isolate, bacteremia, mcr-1)?
The MIC was 64 µg/mL (≈ 44.2 µM).

What about the MIC ([4]; read-out: MICs, all E. coli and A. baumannii strains tested) of the same compound?
The MIC was 64 to 256 µg/mL (≈ 44.2 to 177 µM).

And the MIC ([4]; strain AR055, blaNDM-1, blaCMY-6, blaOXA-1, Ambler B, C, D)?
The MIC was 128 µg/mL (≈ 88.3 µM).

What about the MIC ([4]; strain AR089, blaCMY-2, Ambler C) of the same compound?
Its MIC is 128 µg/mL (≈ 88.3 µM).

What about the MIC ([4]; strain AR0114, blaTEM-1B, blaKPC-3, Ambler A) of the same compound?
The MIC was 256 µg/mL (≈ 177 µM).

And the MIC ([4]; strain AR0137, blaNDM-6, blaOXA-9, blaCMY-42, blaCTX-M-15, Ambler B)?
The MIC was 128 µg/mL (≈ 88.3 µM).

And the MIC ([4]; strain AR0150, blaNDM-5, blaTEM-1B, blaCMY-42, Ambler A, B, C)?
Its MIC is 128 µg/mL (≈ 88.3 µM).

And the MIC ([4]; strain AR0346, mcr-1, ESBL, Ambler A)?
Its MIC is 256 µg/mL (≈ 177 µM).

What about the MIC ([4]; strain AR0349, mcr-1, ESBL, Ambler A) of the same compound?
The MIC was 128 µg/mL (≈ 88.3 µM).

And the MIC ([4]; strain AR0350, mcr-1)?
Its MIC is 128 µg/mL (≈ 88.3 µM).

What about the MIC ([4]; strain AR0493, mcr-1, ESBL, Ambler A) of the same compound?
The MIC was 256 µg/mL (≈ 177 µM).

What about the MIC ([4]; strain AR0494, mcr-1) of the same compound?
Its MIC is 128 µg/mL (≈ 88.3 µM).

And the MIC ([4]; strain B096a, clinical isolate (UK) 2016, AmpC, Ambler C)?
The MIC was 128 µg/mL (≈ 88.3 µM).

And the MIC ([4]; strain B808, clinical isolate (UK) 2016, blaTEM-1, blaCTX-M-15, Ambler A)?
Its MIC is 256 µg/mL (≈ 177 µM).

What about the MIC ([4]; strain ExPEC H5, clinical isolate (UK)) of the same compound?
Its MIC is 128 µg/mL (≈ 88.3 µM).

What about the MIC ([4]; strain H4/5, clinical isolate, blaTEM-1, blaCTX-M-15, Ambler A) of the same compound?
Its MIC is 256 µg/mL (≈ 177 µM).

And the MIC ([4]; strain IR3, clinical isolate, blaNDM-1, Ambler B)?
Its MIC is 128 µg/mL (≈ 88.3 µM).

And the MIC ([4]; strain IR45, clinical isolate, blaNDM-1, Ambler B)?
Its MIC is 128 µg/mL (≈ 88.3 µM).

And the MIC ([4]; strain IR57, clinical isolate, blaNDM-1, Ambler B)?
Its MIC is 256 µg/mL (≈ 177 µM).

And the MIC ([4]; strain JW0451-2, BW25113ΔacrB::kan, AcrB-deficient efflux pump mutant)?
The MIC was 128 µg/mL (≈ 88.3 µM).

What about the MIC ([4]; strain Swiss 2 (AF45), clinical isolate (South Africa) ST101, mcr-1) of the same compound?
The MIC was 128 µg/mL (≈ 88.3 µM).

What about the MIC ([4]; strain Swiss 13, clinical isolate (France) ST69, mcr-1) of the same compound?
The MIC was 128 µg/mL (≈ 88.3 µM).

What about the MIC ([4]; strain Swiss 15, clinical isolate (Switzerland) ST446, mcr-1, blaCTX-M, Ambler A) of the same compound?
The MIC was 128 µg/mL (≈ 88.3 µM).

And the MIC ([4]; strain UTI89, clinical isolate from patient with acute bladder infection)?
The MIC was 128 µg/mL (≈ 88.3 µM).

What about the “Red blood cell lysis (CC50)” value [5] of the same compound?
Its value is greater than 750 µM.

What about the “Log10 change from vehicle (CFU/g)” value [1, 15] of the same compound?
The value was −1.23 log10 CFU/g.

What about the “Log10 (group geometric mean ± SD CFU/g)” value [1, 15] of the same compound?
Its value is 8.48 ± 1.31 log10 CFU/g.

And the MIC [6]?
The MIC was 0.5 µg/mL (≈ 0.345 µM).

What about the MIC ([6]; ATCC49619) of the same compound?
Its MIC is 0.5 µg/mL (≈ 0.345 µM).

What about the “TD solubility in saline” value ([7]; thermodynamic, in saline) of the same compound?
The value was greater than 50 mg/mL.

And the “HepG2 cell cytotoxicity (CC50)” value [8]?
The value was greater than 750 µM.

What about the MIC [9] of the same compound?
Its MIC is 128 µg/mL (≈ 88.3 µM).

What about the “PPB (mouse % bound)” value [10] of the same compound?
Its value is 50/50 % bound.

And the “PPB (human % bound)” value [11]?
The value was 50/50 % bound.

And the “Impact on E. coli burden” value ([12]; dose equivalent to the highest dose of V-r, 9 h)?
The value was “failed to significantly impact E. coli burden”.

And the “Log10 change from vehicle (CFU/g)” value ([12]; total dose over 9 h 800 mg/kg)?
Its value is −0.51 log10 CFU/g.

And the “Log10 (group geometric mean ± SD CFU/g)” value ([12]; total dose over 9 h 800 mg/kg, n = 5)?
The value was 6.60 ± 0.66 log10 CFU/g.

What about the MIC ([13]; strain B803, clinical isolate (UK) 2016) of the same compound?
The MIC was 128 µg/mL (≈ 88.3 µM).

What about the MIC ([13]; strain GS2AB1, multiresistant clinical isolate (southern Europe) 2017) of the same compound?
Its MIC is 128 µg/mL (≈ 88.3 µM).

What about the MIC ([13]; strain Naval-81, clinical isolate (USA) 2006) of the same compound?
Its MIC is 128 µg/mL (≈ 88.3 µM).

With CN[C@H](CC(C)C)C(=O)N[C@H]1C(=O)N[C@@H](CC(N)=O)C(=O)N[C@H]2C(=O)N[C@H]3C(=O)N[C@H](C(=O)N[C@H](C(=O)N[C@H](CCCNC(=N)N)C(N)=O)c4cc(O)cc(O)c4-c4cc3ccc4O)[C@H](O)c3ccc(c(Cl)c3)Oc3cc2cc(c3O[C@@H]2O[C@H](CO)[C@@H](O)[C@H](O)[C@H]2O[C@H]2C[C@](C)(N)[C@H](O)[C@H](C)O2)Oc2ccc(cc2Cl)[C@H]1O [V-r] as the compound, how does the Clearance ([14]; 20 mg/kg) read?
The Clearance was 7.8 mL/min/kg.

What about the Vd ([14]; 20 mg/kg) of the same compound?
Its Vd is 0.59 L/kg.

And the Clearance ([14]; 121 mg/kg)?
The Clearance was 5.4 mL/min/kg.

What about the Vd ([14]; 121 mg/kg) of the same compound?
The Vd was 0.60 L/kg.

And the solubility thermodynamic ([7]; saline or isotonic, thermodynamic from solid)?
Its solubility thermodynamic is 373 mg/mL (≈ 232000 µM).
